# Reference: article PMC9551036, “A selective and orally bioavailable VHL-recruiting PROTAC achieves SMARCA2 degradation in vivo” (Nature Communications, 2022)
# “And” between values parts separate entries of the source, which are not always exact repeats. Equal entries are not always repeated. Where two headings read alike, the source gives them in different places.
# Experiments:
# Plasma protein binding = type: in vitro ADME
# Procedure: Binding of compound to plasma proteins was determined by equilibrium dialysis of 3 µmol/L compound in plasma (or plasma dilutions in PBS) against PBS through an 8 kDa molecular-weight cut-off cellulose membrane (RED device, Thermo Fisher) at 37 °C for 5 h. After incubation, aliquots from donor and acceptor compartments were precipitated and the concentrations in the supernatants were determined by quantitative LC-MS/MS. Calibration and quality control samples were prepared using blank plasma and internal standard. The fraction unbound was calculated as ratio of the compound concentration in the acceptor compartment to the concentration in the donor compartment.
# P-gp = assay: Bidirectional permeability measurement in Caco-2 cells; type: in vitro ADME; conditions: human, Caco-2, pH 7.4, with zosuquidar 5 µM
# Procedure, shortened: (§1)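 Caco-2 monolayers grown 14–21 days, preincubated 24 h with medium containing 1 µM compound; bidirectional transport sampled up to 2 h, quantified by LC-MS/MS, ± 5 µM zosuquidar (P-gp inhibitor). Papp,AB and Papp,BA from receiver amount, donor C0, area and time; efflux ratio = Papp,BA/Papp,AB (duplicate means). TEER checked per plate.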
# [1] = as above; type: in vitro ADME; conditions: human
# Procedure, shortened: as §1
# SMARCA2 = SMARCA2 (Homo sapiens, UniProt P51531); assay: SMARCA2 capillary electrophoresis protein assay in other cell lines (A549, NCI-H1568, HCT116, LU99, HCC-364, HCT-15, HCC4006, SK-N-AS); type: cell-based; set-up: endogenous in cells; host or cells: RKO, NCI-H1568, A549, HCT116, LU99, HCC-364, HCT-15, HCC4006, SK-N-AS
# Procedure: 130,000–200,000 cells were seeded in 24-well plates and incubated until settled down or overnight. Compounds were dissolved in DMSO and added to cells in indicated concentrations using a digital dispenser following an optional media change. Cells were incubated for 4 or 18 h as indicated. For SMARCA2/4 half-life determination, 150,000 or 200,000 cells were seeded in 24-well plates. The next day, 50 µg/ml cycloheximide (Sigma) was added and cells were incubated for 1–24 h. For SMARCA2/4 re-synthesis measurements, 200,000 cells were seeded in 24-well plates. The next day, 100 nM compound 6 was added for 4 h to degrade SMARCA2/4, and a sample was taken as baseline for normalisation. To allow re-synthesis, a VHL binder (compound 32, 25 or 50 µM) was then added for 3 or 24 h. Medium was removed, cells were washed with PBS and lysed with 80 µl Lysis Buffer (MSD Tris Lysis Buffer (#R60TX-2) + Halt Inhibitor Cocktail (100x) + Benzonase 0.5 µL/ml). Samples were frozen at −80 °C and thawed at room temperature before use. Samples were transferred to a V-bottom plate and insoluble debris was pelleted by centrifugation for 5 min at maximum speed. The supernatant was transferred to a fresh plate. Master Mix and Ladder were prepared according to manufacturer’s instructions for 12–230 kDa Wes Separation Module, 8 × 25 capillary cartridges, Protein Simple #SM-W004 with Anti-Rabbit Detection Module for Wes, Peggy Sue or Sally Sue, Protein Simple #DM-001. 4.8 µl lysate were mixed with 1.2 µl Master Mix to achieve a protein concentration of ~0.5 µg/µl. Antibodies were diluted in Antibody Diluent II (SMARCA2 Sigma #HPA029981 RRID:AB_10602406 1:25–100, SMARCA4 Cell Signalling #49360 clone D1Q7F RRID:AB_2728743 1:15–120 or Abcam #ab110641 clone EPNCIR111A RRID:AB_10861578 1:60, GAPDH Abcam #ab9485 RRID:AB_307275 1:250). Wes plates were prepared and run according to manufacturer’s instructions. Proteins were quantified with accompanying Compass Software. SMARCA2/4 protein levels were normalised to GAPDH. […] Where applicable, curves were fitted using a 4-parametric logistic model.
# [2] = HCC4006_SM2, four-parameter fit
# SMARCA2, sequence (P51531 whole entry): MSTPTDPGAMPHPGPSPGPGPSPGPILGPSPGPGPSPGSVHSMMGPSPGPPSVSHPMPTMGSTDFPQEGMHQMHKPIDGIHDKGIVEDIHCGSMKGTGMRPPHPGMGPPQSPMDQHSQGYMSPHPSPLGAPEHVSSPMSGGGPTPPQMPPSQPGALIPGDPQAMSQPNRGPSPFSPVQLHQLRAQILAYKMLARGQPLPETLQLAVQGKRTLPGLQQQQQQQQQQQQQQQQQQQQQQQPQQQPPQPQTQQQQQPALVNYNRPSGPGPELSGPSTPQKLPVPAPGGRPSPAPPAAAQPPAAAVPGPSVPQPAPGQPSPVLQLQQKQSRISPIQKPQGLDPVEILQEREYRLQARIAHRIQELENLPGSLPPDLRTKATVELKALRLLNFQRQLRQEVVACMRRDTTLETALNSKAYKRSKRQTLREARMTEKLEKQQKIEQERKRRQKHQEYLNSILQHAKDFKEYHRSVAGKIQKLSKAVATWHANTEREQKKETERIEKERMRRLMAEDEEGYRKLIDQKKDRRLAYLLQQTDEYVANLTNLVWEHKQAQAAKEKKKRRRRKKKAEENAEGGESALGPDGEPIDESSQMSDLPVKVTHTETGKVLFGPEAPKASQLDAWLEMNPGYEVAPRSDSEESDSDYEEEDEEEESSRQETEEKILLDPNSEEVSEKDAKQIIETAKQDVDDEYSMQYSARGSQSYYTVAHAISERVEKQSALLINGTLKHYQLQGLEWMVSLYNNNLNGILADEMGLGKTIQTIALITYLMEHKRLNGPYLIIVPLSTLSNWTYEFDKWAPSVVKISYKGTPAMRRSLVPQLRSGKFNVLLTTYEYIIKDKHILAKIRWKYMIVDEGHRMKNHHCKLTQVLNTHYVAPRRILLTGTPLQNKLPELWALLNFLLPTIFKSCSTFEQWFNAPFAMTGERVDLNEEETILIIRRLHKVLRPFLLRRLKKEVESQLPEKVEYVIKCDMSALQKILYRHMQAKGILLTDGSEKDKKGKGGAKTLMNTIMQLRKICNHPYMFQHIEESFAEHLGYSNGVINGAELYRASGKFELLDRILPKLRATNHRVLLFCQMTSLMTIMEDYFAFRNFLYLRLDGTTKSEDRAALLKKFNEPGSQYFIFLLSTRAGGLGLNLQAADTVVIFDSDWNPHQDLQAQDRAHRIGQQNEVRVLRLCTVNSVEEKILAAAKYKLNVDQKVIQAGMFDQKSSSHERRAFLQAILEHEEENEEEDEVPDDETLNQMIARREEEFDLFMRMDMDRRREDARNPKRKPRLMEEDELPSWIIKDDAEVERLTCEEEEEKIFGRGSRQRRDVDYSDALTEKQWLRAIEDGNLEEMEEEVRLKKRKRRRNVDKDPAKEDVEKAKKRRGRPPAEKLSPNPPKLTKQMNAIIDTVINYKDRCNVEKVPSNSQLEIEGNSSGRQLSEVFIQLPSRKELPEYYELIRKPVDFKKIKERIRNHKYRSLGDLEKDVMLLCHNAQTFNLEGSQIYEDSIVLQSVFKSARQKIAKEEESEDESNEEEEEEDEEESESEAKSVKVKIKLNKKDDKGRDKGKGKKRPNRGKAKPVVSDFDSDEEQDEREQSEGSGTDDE
compound,measurement,setting,value
Cc1ncsc1-c1ccc(C(CCC(C)CCN2CCC(c3ccc4c(c3)n(C3CCCC3)c3nc(=O)c5c(Br)cccc5n43)CC2)NC(=O)C2CC(O)CN2C(=O)C(NC(=O)C2(F)CC2)C(C)(C)C)cc1 (stereo not drawn) [ACBI2],PPB fu 10% Human,Plasma protein binding; 10% human,< 0.054%
same,PPB fu 10% Rat,Plasma protein binding; 10% rat,< 0.053% and < 0.048%
same,"fraction unbound at 5 h, 3 µmol/L","Plasma protein binding; bovine, 10% calf plasma dilution in PBS, 10% calf, fraction unbound, read-out: PPB fu 10% Calf",0.0035
same,"fraction unbound at 5 h, 3 µmol/L","Plasma protein binding; bovine, 10% plasma (plasma dilution in PBS), 10% calf, read-out: PPB fu 10% Calf",0.00349
same,"fraction unbound at 5 h, 3 µmol/L","Plasma protein binding; human, 10% plasma (plasma dilution in PBS), 10% human, read-out: PPB fu 10% Human",< 0.00045
same,"fraction unbound at 5 h, 3 µmol/L","Plasma protein binding; human, plasma, human, fraction unbound, read-out: PPB fu Human",< 0.0005
same,"fraction unbound at 5 h, 3 µmol/L","Plasma protein binding; mouse, 10% plasma (plasma dilution in PBS), 10% mouse, read-out: PPB fu 10% Mouse",< 0.00051
same,"fraction unbound at 5 h, 3 µmol/L","Plasma protein binding; mouse, plasma, mouse, fraction unbound, read-out: PPB fu Mouse",< 0.0005
same,"fraction unbound at 5 h, 3 µmol/L","Plasma protein binding; rat, 10% plasma (plasma dilution in PBS), 10% rat, read-out: PPB fu 10% Rat",< 0.00054
same,"fraction unbound at 5 h, 3 µmol/L","Plasma protein binding; rat, plasma, rat, fraction unbound, read-out: PPB fu Rat",< 0.0005
same,Papp A→B at 1 µM,"P-gp; Modified Caco-2 + PGPi (Zosuquidar), read-out: Modified Caco-2 + PGPi (Zosuquidar) Pab",8 ± 4 ×10⁻⁶ cm/s
same,"Papp B→A at 2 h, 1 µM","P-gp; Modified Caco-2, b to a, + PGPi (Zosuquidar), read-out: Modified Caco-2 Pba + PGPi (Zosuquidar)",11 ×10⁻⁶ cm/s
same,Papp A→B at 1 µM,"[1]; Caco-2, pH 7.4, Caco-2, read-out: Caco-2 Pab",2 ± 0.2 ×10⁻⁶ cm/s
same,Papp A→B at 1 µM,"[1]; Caco-2, pH 7.4, Modified Caco-2, read-out: Modified Caco-2 Pab",9 ± 9 ×10⁻⁶ cm/s
same,"Bottom (% protein remaining, four-parameter fit)","SMARCA2; A549, 4h",4.929%
same,HillSlope (protein remaining),"SMARCA2; A549, 4h",-1.225
same,LogEC50 (protein remaining),"SMARCA2; A549, 4h",-8.097 log10(mol/l)
same,"Top (% protein remaining, four-parameter fit)","SMARCA2; A549, 4h",100.9%
same,% protein remaining,"SMARCA2; A549, 4h, conc 1.00001e-10 mol/l",84.5708% and 85.2048%
same,% protein remaining,"SMARCA2; A549, 4h, conc 1.52416e-10 mol/l",108.644%
same,% protein remaining,"SMARCA2; A549, 4h, conc 3.1623e-10 mol/l",89.402% and 93.1131%
same,% protein remaining,"SMARCA2; A549, 4h, conc 4.57247e-10 mol/l",121.415%
same,% protein remaining,"SMARCA2; A549, 4h, conc 1.00001e-9 mol/l",110.304% and 110.867%
same,% protein remaining,"SMARCA2; A549, 4h, conc 1.37174e-9 mol/l",89.7364%
same,% protein remaining,"SMARCA2; A549, 4h, conc 3.1623e-9 mol/l",63.5379% and 69.9208%
same,% protein remaining,"SMARCA2; A549, 4h, conc 4.11523e-9 mol/l",69.7779%
same,% protein remaining,"SMARCA2; A549, 4h, conc 1.00001e-8 mol/l",46.41% and 40.9559%
same,% protein remaining,"SMARCA2; A549, 4h, conc 1.23457e-8 mol/l",53.3153%
same,% protein remaining,"SMARCA2; A549, 4h, conc 3.1623e-8 mol/l",21.5929% and 21.3671%
same,% protein remaining,"SMARCA2; A549, 4h, conc 3.7037e-8 mol/l",16.6414%
same,% protein remaining,"SMARCA2; A549, 4h, conc 1.00001e-7 mol/l",9.055% and 9.573%
same,% protein remaining,"SMARCA2; A549, 4h, conc 1.11111e-7 mol/l",6.719%
same,% protein remaining,"SMARCA2; A549, 4h, conc 3.1623e-7 mol/l",3.884% and 5.2896%
same,% protein remaining,"SMARCA2; A549, 4h, conc 3.33333e-7 mol/l",5.288%
same,% protein remaining,"SMARCA2; A549, 4h, conc 1e-6 mol/l",9.764%
same,% protein remaining,"SMARCA2; A549, 4h, conc 1.00001e-6 mol/l",2.893% and 6.667%
same,% protein remaining,"SMARCA2; A549, 4h, conc 3.1623e-6 mol/l",2.881% and 4.488%
same,DC50,"SMARCA2; A549, 4h, read-out: EC50 (protein remaining)",8 nM
same,"Bottom (% protein remaining, four-parameter fit)","SMARCA2; A549, 8h",4.658%
same,HillSlope (protein remaining),"SMARCA2; A549, 8h",-1.748
same,LogEC50 (protein remaining),"SMARCA2; A549, 8h",-8.366 log10(mol/l)
same,"Top (% protein remaining, four-parameter fit)","SMARCA2; A549, 8h",107%
same,% protein remaining,"SMARCA2; A549, 8h, conc 1.52416e-10 mol/l",110.756% and 87.6939%
same,% protein remaining,"SMARCA2; A549, 8h, conc 4.57247e-10 mol/l",98.1008% and 121.894%
same,% protein remaining,"SMARCA2; A549, 8h, conc 1.37174e-9 mol/l",100.189% and 99.1847%
same,% protein remaining,"SMARCA2; A549, 8h, conc 3.7037e-8 mol/l",13.1114% and 6.497%
same,% protein remaining,"SMARCA2; A549, 8h, conc 1.11111e-7 mol/l",4.666% and 4.638%
same,% protein remaining,"SMARCA2; A549, 8h, conc 3.33333e-7 mol/l",3.034% and 3.636%
same,% protein remaining,"SMARCA2; A549, 8h, conc 1e-6 mol/l",2.595% and 3.383%
same,% protein remaining,"SMARCA2; A549, 8h, conc 3e-6 mol/l",3.585% and 2.581%
same,DC50,"SMARCA2; A549, 8h, read-out: EC50 (protein remaining)",4.31 nM
same,"Bottom (% protein remaining, four-parameter fit)","SMARCA2; A549, 18h",5.224%
same,HillSlope (protein remaining),"SMARCA2; A549, 18h",-3.553
same,LogEC50 (protein remaining),"SMARCA2; A549, 18h",-8.518 log10(mol/l)
same,"Top (% protein remaining, four-parameter fit)","SMARCA2; A549, 18h",104.8%
same,% protein remaining,"SMARCA2; A549, 18h, conc 1.52416e-10 mol/l",87.6939%
same,% protein remaining,"SMARCA2; A549, 18h, conc 4.57247e-10 mol/l",121.894%
same,% protein remaining,"SMARCA2; A549, 18h, conc 1.37174e-9 mol/l",99.1847%
same,% protein remaining,"SMARCA2; A549, 18h, conc 4.11523e-9 mol/l",30.1189%
same,% protein remaining,"SMARCA2; A549, 18h, conc 1.23457e-8 mol/l",11.5462%
same,% protein remaining,"SMARCA2; A549, 18h, conc 3.7037e-8 mol/l",6.497%
same,% protein remaining,"SMARCA2; A549, 18h, conc 1.11111e-7 mol/l",4.638%
same,% protein remaining,"SMARCA2; A549, 18h, conc 3.33333e-7 mol/l",3.636%
same,% protein remaining,"SMARCA2; A549, 18h, conc 1e-6 mol/l",3.383%
same,% protein remaining,"SMARCA2; A549, 18h, conc 3e-6 mol/l",2.581%
same,DC50,"SMARCA2; A549, 18h, read-out: EC50 (protein remaining)",3.03 nM
same,SMARCA2 degradation in sensitive cell lines,SMARCA2; A549 and NCI-H1568,rapid and complete degradation of SMARCA2
same,"Bottom (best-fit value, % protein remaining)",SMARCA2; [2],15.27%
same,HillSlope,SMARCA2; [2],-1.75
same,LogEC50,"SMARCA2; HCC4006_SM2, log10 of concentration in mol/l",-7.779
same,DC50,"SMARCA2; HCC4006_SM2, protein degradation, four-parameter fit, read-out: EC50 (the source's name)",16.6 nM
same,"Bottom (best-fit value, % protein remaining)","SMARCA2; HCC-364_SM2, four-parameter fit",10.4%
